Assay results published in patent US20080280837A1, “Biologically Active Compounds with Anti-Angiogenic Properties” (priority 2004, published 2008).

Molecular target: T1, Human SST5 somatostatin receptor (SSTR5) (Homo sapiens, UniProt P35346)
T1 construct: expressed in transfected cells; host or cells: HEK-293 EBNA
Test: Filter plate assay for SST5 receptor, displacement of [125I]SST-14
Assay type: binding
Protocol: Receptor membrane preparations containing the desired cloned receptor (for example cloned human somatostatin receptor subtype 5, SSTR5) and radio-labeled ligand (for example 3-[^125I]iodotyrosyl^11 Somatostatin-14)) were diluted at the concentration required for testing and according to the specific parameters associated with the selected receptor-ligand combination, including receptor Bmax, ligand Kd and any other parameters necessary to optimize the experimental conditions. When tested for competition activity to the reference ligand, “compound 1” was mixed with membrane suspension and the radiolabeled reference ligand (with or without an excess of cold ligand to the receptor for determination of non-specific binding) and incubated at the temperature required by internal standard operating procedures. Following incubation, the binding reaction was stopped by the addition of ice-cold washing buffer and filtered on appropriate filters, which are then counted. Data analysis and curve-fitting was performed with XLfit (IDBS).
10 mM solutions of test compounds in 100% DMSO were prepared. ˜160 μl was used for each dilution (20 μl/well in triplicate).
A 1.25 mM assay stock was prepared by making a 1:8 dilution of the 10 mM solution. (To 30 μL of the 10 mM solution was added 210 μL milli-Q H2O. A 1:5 dilution series in milli-Q H2O was then prepared.
Assays were performed in triplicate at each concentration within the 1:5 dilution series: 250 μM, 50 μM, 10 μM, […], 0.4 μM, 0.08 μM, 0.016 μM, 0.0032 μM, etc. (for SST4 assay) and 125 μM, 10 μM, 2 μM, 1 μM, 0.5 μM, etc (for SST5 assay).
Human SST5 somatostatin receptor was transfected into HEK-293 EBNA cells. Membranes were suspended in assay buffer (50 mM Tris-HCl, 1 mM EGTA, 5 mM MgCl2, 10% sucrose, pH 7.5).
After thawing the frozen receptor preparation rapidly, receptors were diluted with binding buffer, homogenized, and kept on ice. • 1. Use Multiscreen glass fiber filter plates (Millipore, Cat No MAFCNOB10) precoated with o.5% PEI for ˜2 hr at 4° C. Before use add 200 μl/well assay buffer and filter using Multiscreen Separation System. • 2. Incubate 5.5 μg of membranes (40 μl of a 1:40 dilution), buffer and [^125I]SST-14 (4 nM, ˜80 000 cpm, 2000 Ci/mmol) in a total volume of 200 μl for 60 min at 25° C. […] Prepare serial dilutions (1:5) of compounds, as described above and instead of adding SST-14 in well, add 20 μl of compounds (Table 1). • 3. Filter using Multiscreen Separation System with 5×0.2 ml ice-cold Assay buffer. • 4. Remove the plastic underdrain and dry plate in oven for 1 hr at 40° C. • 5. Seal tape to the bottom of the plate. • 6. Add 50 μl/well scintillant (Supermix, Wallac, Cat No 1200-439). • 7. Seal and count in the BJET, program 2.
In primary screening experiments compounds were tested in duplicate for a particular concentration.

T1 sequence (P35346 whole entry): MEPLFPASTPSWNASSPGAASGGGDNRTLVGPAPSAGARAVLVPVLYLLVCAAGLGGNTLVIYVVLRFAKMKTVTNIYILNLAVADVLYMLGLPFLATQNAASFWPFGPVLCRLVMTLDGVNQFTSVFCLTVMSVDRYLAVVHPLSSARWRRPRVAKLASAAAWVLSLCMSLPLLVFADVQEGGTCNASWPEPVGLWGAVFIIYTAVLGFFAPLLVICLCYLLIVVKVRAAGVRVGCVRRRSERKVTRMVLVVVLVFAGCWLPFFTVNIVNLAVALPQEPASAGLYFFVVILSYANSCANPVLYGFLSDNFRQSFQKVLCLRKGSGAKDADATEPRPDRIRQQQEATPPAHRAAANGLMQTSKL

SMILES | SSTR5 Inhib 0.5 uM % (inhibition of binding of SST-14 to SSTR5) [%] | SSTR5 Inhib 10 uM % (inhibition of binding of SST-14 to SSTR5) [%]
COC1C(O)C(COCc2ccc(Cl)cc2)OC(OCc2ccc3ccccc3c2)C1NC(=O)CCCNC(=N)N (stereo not shown) [Compound 134] | 55 | 79
CSC1O[C@H](COCc2ccc(-c3ccccc3)cc2)[C@@H](O)[C@@H](OCc2ccc3ccccc3c2)[C@H]1NC(=O)CCN (stereo partly shown) [Compound 66] | 61 | 89
COC[C@H]1OC(OCc2ccc(Cl)cc2)[C@H](NC(=O)CCCNC(=N)N)[C@@H](OCc2ccc3ccccc3c2)[C@@H]1O (stereo partly shown) [Compound 160] | 40 | 74
COC1C(O)C(COCc2ccc3ccccc3c2)OC(OCc2ccc3ccccc3c2)C1NC(=O)CCCN (stereo not shown) [Compound 81] | 60 | 87
CO[C@H]1[C@H](O)[C@@H](COCc2ccc(Cl)cc2)OC(OCc2ccc(Cl)cc2)[C@@H]1NC(=O)CCCN (stereo partly shown) [Compound 122] | 39 | 81
COC[C@H]1OC(OCc2ccc(Cl)cc2)[C@H](NC(=O)CCNC(=N)N)[C@@H](OCc2ccc(Cl)cc2)[C@@H]1O (stereo partly shown) [Compound 123] | 40 | 81
COC[C@H]1OC(OCc2ccc(Cl)cc2)[C@H](NC(=O)CCCN)[C@@H](OCc2ccccc2)[C@@H]1O (stereo partly shown) [Compound 164] | 39 | 73
COC[C@H]1OC(OCc2ccc3ccccc3c2)[C@H](NC(=O)CNC(=N)N)[C@@H](OCc2ccc(-c3ccccc3)cc2)[C@@H]1O (stereo partly shown) [Compound 88] | 63 | 86
COC[C@H]1OC(OCc2ccccc2)[C@H](NC(=O)CCCN)[C@H](OCc2ccc3ccccc3c2)[C@@H]1O (stereo partly shown) [Compound 76] | 51 | 88
COC[C@H]1OC(OCCc2ccccc2)[C@H](NC(=O)CCCN)[C@H](OCc2ccc3ccccc3c2)[C@@H]1O (stereo partly shown) [Compound 28] | 70 | 96
COC[C@H]1OC(OCc2ccc(Cl)cc2)[C@H](NC(=O)CCNC(=N)N)[C@H](OCc2ccc3ccccc3c2)[C@@H]1O (stereo partly shown) [Compound 50] | 74 | 92
COC[C@H]1OC(OCc2ccccc2)[C@H](NC(=O)CCN)[C@H](OCc2ccc(Cl)cc2)[C@@H]1O (stereo partly shown) [Compound 22] | 80 | 96
COC[C@H]1OC(OCc2ccccc2)[C@H](NC(=O)CCN)[C@H](OCc2ccc3ccccc3c2)[C@@H]1O (stereo partly shown) [Compound 37] | 81 | 95
COC[C@H]1OC(OCc2ccc3ccccc3c2)[C@H](NC(=O)CCCN)[C@H](OCc2ccc(Cl)cc2)[C@@H]1O (stereo partly shown) [Compound 20] | 76 | 97
COC[C@H]1OC(OCCc2ccccc2)[C@H](NC(=O)CCCNC(=N)N)[C@H](OCc2ccc(Cl)cc2)[C@@H]1O (stereo partly shown) [Compound 62] | 61 | 90
COC1C(O)C(COCc2ccc3ccccc3c2)OC(OCc2ccc3ccccc3c2)C1NC(=O)CCNC(=N)N (stereo not shown) [Compound 115] | 50 | 82
COC[C@H]1OC(OCCc2ccccc2)[C@H](NC(=O)CCNC(=N)N)[C@@H](OCc2ccc(Cl)cc2)[C@@H]1O (stereo partly shown) [Compound 166] | 36 | 73
